Source: patent US11952365B2, “Anti-viral compounds” (Aligos Therapeutics, Inc., priority 2020, dated 2024)
Where two headings read alike, the source gives them in different places.

Key:
[1] = system: human beta-coronavirus OC43; assay: microbe, parasite or virus in culture; format: cell-based; settings: Betacoronavirus 1, OC43, HeLa, 144 h, OC43 in HeLa cells, 6 days at 33° C., read-out: EC50
in vitro [2] = settings: African green monkey, VeroE6 + CP (CC50), Vero E6-eGFP cells with CP-100356, absence of virus, MTS
HRV3C = HRV3C (Human rhinovirus 14, UniProt P03303); assay: HRV3C protease assay (duplex, SAMDI-MS); format: biochemical, HRV; settings: 30 mins preincubation
Summary of the method: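 Readout is SAMDI mass spectrometry: biotinylated substrates, products and internal standards were immobilized on neutravidin monolayers and product formation taken as the AUC ratio to internal standard. Reactions ran 30 min at ambient temperature after 30 min compound preincubation, in duplex with 3CLpro. IC50 values came from four-parameter curve fitting.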

[3] = system: SARS-CoV-2-GHB-03021/2020; assay: SARS-CoV-2 Infection Model in Huh7 Cells; format: cell-based; settings: Severe acute respiratory syndrome coronavirus 2, Huh-7, 96 h, SARS-CoV-2, day 4 p.i., MTS
[4] = system: SARS-CoV-2-GHB-03021/2020; assay: microbe, parasite or virus in culture; format: cell-based; settings: Severe acute respiratory syndrome coronavirus 2, Vero C1008, 96 h; read-out: VeroE6 + CP (EC50)
3CLpro = 3CLpro (Severe acute respiratory syndrome coronavirus 2, UniProt P0DTD1); assay: SARS-CoV-2 3CLpro protease assay (duplex, SAMDI-MS); format: biochemical; design: For the duplex assay, 3CLpro and HRV3C was added; settings: 30 mins preincubation, class symbols
human cathepsin L = biological target: T1, human cathepsin L (Homo sapiens, UniProt P07711); assay: cathepsin L assay; format: biochemical; settings: 10 pM human cathepsin L, Z-FR-AMC 2 μM, class symbols
T1 construct: purchased R&D Systems
Summary of the method: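 Reactions began by adding 2 μM (final) Z-FR-AMC substrate to 10 pM human cathepsin L that had been preincubated 30 min with inhibitor. Kinetic AMC fluorescence at 355/460 nm over 30 min at 2-min intervals; four-parameter fitting gave IC50 values.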

in vitro [5] = settings: human
[6] = Cytotoxicity plates without OC43 virus (cell-titer-glo); format: cell-based, human; settings: human; HeLa cells without OC43 virus, class symbols
Summary of the method: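 Run as a virus-free counterpart of the OC43 cytopathic-effect assay. Attached HeLa cells received compound dilutions in EMEM with 2% FBS and were kept 6 days at 33 °C. Cell viability was then measured by CellTiter-Glo luminescence.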

[7] = HRV3C, class symbols, read-out: HRV IC50
[8] = 3CLpro, read-out: SARS-Cov-2 IC50

SMILES | EC50 ([1]; class symbols) [µM] | CC50 (in vitro [2]; numeric bounds) [µM] | IC50 (HRV3C; [7]) [µM] | EC50 ([3]; class symbols) [µM] | EC50 [4] [µM] | IC50 (3CLpro; [8]) [µM] | IC50 (human cathepsin L) [µM] | CC50 (in vitro [5]) [µM] | CC50 at 6 days [6] [µM] | IC50 (HRV3C; HRV IC50, HRV3C, bound) [µM] | IC50 (3CLpro; SARS-Cov-2 IC50, 3CLpro) [µM] | CC50 (in vitro [2]; class symbols) [µM] | EC50 ([1]; bound) [µM] | EC50 ([3]; numeric bounds) [µM] | IC50 (HRV3C; HRV IC50, HRV3C, class symbols) [µM] | IC50 (HRV3C; HRV3C, bound, read-out: HRV IC50) [µM]
CC(=O)c1c[nH]c(C(=O)N2C[C@@H]3CCC[C@@H]3[C@H]2C(=O)N[C@@H](C[C@@H]2CCNC2=O)C(=O)CO)c1 [Compound 86, (1S,3aR,6aS)-2-(4-acetyl-1H-pyrrole-2-carbonyl)-N-[(2S)-4-hydroxy-3-oxo-1-[(3S)-2-oxopyrrolidin-3-yl]butan-2-yl]-hexahydro-1H-cyclopenta[c]pyrrole-1-carboxamide] | 1 to 10 | > 50 | 2 to 20 | 10 to 100 | 10 to 100 | 0.02 to 0.2 | ≥ 10 | > 50 | > 10 |  |  |  |  |  |  | 
O=C1NCC[C@H]1C[C@H](NC(=O)[C@@H]1[C@H]2CCC[C@H]2CN1C(=O)c1cc2c(OC(F)F)cccc2[nH]1)C(=O)CO [Compound 87, (1S,3aR,6aS)-2-[4-(difluoromethoxy)-1H-indole-2-carbonyl]-N-[(2S)-4-hydroxy-3-oxo-1-[(3S)-2-oxopyrrolidin-3-yl]butan-2-yl]-hexahydro-1H-cyclopenta[c]pyrrole-1-carboxamide] | < 0.1 | > 100 | 2 to 20 | 1 to 10 | < 1 | < 0.02 | ≥ 10 | > 10 | > 10 |  |  |  |  |  |  | 
COc1cc(Cl)cc2[nH]c(C(=O)N3C[C@@H]4CCC[C@@H]4[C@H]3C(=O)N[C@@H](C[C@@H]3CCNC3=O)C(=O)CO)cc12 [Compound 88, (1S,3aR,6aS)-2-(6-chloro-4-methoxy-1H-indole-2-carbonyl)-N-[(2S)-4-hydroxy-3-oxo-1-[(3S)-2-oxopyrrolidin-3-yl]butan-2-yl]-hexahydro-1H-cyclopenta[c]pyrrole-1-carboxamide] | < 0.1 | > 100 | 2 to 20 | < 1 | < 1 | < 0.02 | ≥ 10 | > 10 | > 10 |  |  |  |  |  |  | 
COc1ccc(Cl)c2[nH]c(C(=O)N3C[C@@H]4CCC[C@@H]4[C@H]3C(=O)N[C@@H](C[C@@H]3CCNC3=O)C(=O)CO)cc12 [Compound 89, (1S,3aR,6aS)-2-(7-chloro-4-methoxy-1H-indole-2-carbonyl)-N-[(2S)-4-hydroxy-3-oxo-1-[(3S)-2-oxopyrrolidin-3-yl]butan-2-yl]-hexahydro-1H-cyclopenta[c]pyrrole-1-carboxamide] | 0.1 to 1 | > 100 |  | < 1 | < 1 |  | ≥ 10 | > 50 | > 10 | > 10 | < 0.02 |  |  |  |  | 
O=C1NCC[C@H]1C[C@H](NC(=O)[C@@H]1[C@H]2CCC[C@H]2CN1C(=O)c1cc2c(Cl)cc(F)cc2[nH]1)C(=O)CO [Compound 90, (1S,3aR,6aS)-2-(4-chloro-6-fluoro-1H-indole-2-carbonyl)-N-[(2S)-4-hydroxy-3-oxo-1-[(3S)-2-oxopyrrolidin-3-yl]butan-2-yl]-hexahydro-1H-cyclopenta[c]pyrrole-1-carboxamide] | < 0.1 | > 100 | 2 to 20 | < 1 | < 1 | < 0.02 | ≥ 10 | > 50 | > 10 |  |  |  |  |  |  | 
O=C1NCC[C@H]1C[C@H](NC(=O)[C@@H]1[C@H]2CCC[C@H]2CN1C(=O)c1cc2c(Cl)cc(Cl)cc2[nH]1)C(=O)CO [Compound 91, (1S,3aR,6aS)-2-(4,6-dichloro-1H-indole-2-carbonyl)-N-[(2S)-4-hydroxy-3-oxo-1-[(3S)-2-oxopyrrolidin-3-yl]butan-2-yl]-hexahydro-1H-cyclopenta[c]pyrrole-1-carboxamide] | < 0.1 |  | 2 to 20 | < 1 | < 1 | < 0.02 | ≥ 10 | > 10 | > 10 |  |  | > 10 |  |  |  | 
COc1nccc2[nH]c(C(=O)N3C[C@@H]4CCC[C@@H]4[C@H]3C(=O)N[C@@H](C[C@@H]3CCNC3=O)C(=O)CO)cc12 [Compound 93, (1S,3aR,6aS)—N-[(2S)-4-hydroxy-3-oxo-1-[(3S)-2-oxopyrrolidin-3-yl]butan-2-yl]-2-{4-methoxy-1H-pyrrolo[3,2-c]pyridine-2-carbonyl}-hexahydro-1H-cyclopenta[c]pyrrole-1-carboxamide] | 1 to 10 | > 50 |  | 10 to 100 | 10 to 100 | < 0.02 | ≥ 10 | > 100 | > 10 | > 10 |  |  |  |  |  | 
C=CC12CN(C(=O)c3cc4c(OC)cccc4[nH]3)C(C(=O)N[C@@H](C[C@@H]3CCNC3=O)C(=O)C(=O)NC3CC3)(C1)C2 [Compound 98] |  |  | 0.02 to 0.2 |  | 10 to 100 | 0.2 to 2 | ≥ 10 | > 50 | > 10 |  |  | > 10 | > 10 | > 50 |  | 
COCCNC(=O)C(=O)[C@H](C[C@@H]1CCNC1=O)NC(=O)[C@@H]1[C@H]2CCC[C@H]2CN1C(=O)c1cc2c(OC)cccc2[nH]1 [Compound 100, (1S,3aR,6aS)-2-(4-methoxy-1H-indole-2-carbonyl)-N—((S)-4-((2-methoxyethyl)amino)-3,4-dioxo-1-((S)-2-oxopyrrolidin-3-yl)butan-2-yl)octahydrocyclopenta[c]pyrrole-1-carboxamide] | 1 to 10 | > 100 |  | 10 to 100 | 10 to 100 |  | ≥ 10 | > 50 | > 10 |  | 0.02 to 0.2 |  |  |  | 0.2 to 2 | 
COc1cccc2[nH]c(C(=O)N3C[C@@H]4CCC[C@@H]4[C@H]3C(=O)N[C@@H](C[C@@H]3CCNC3=O)C(=O)C(=O)NCCOCc3ccccc3)cc12 [Compound 101] | 0.1 to 1 |  | 0.2 to 2 | 1 to 10 | 1 to 10 | < 0.02 | ≥ 10 | > 50 | > 10 |  |  | > 10 |  |  |  | 
COc1cccc2[nH]c(C(=O)N3CCc4ccccc4[C@H]3C(=O)N[C@@H](C[C@@H]3CCNC3=O)C(=O)C(=O)NC3CC3)cc12 [Compound 102] | 1 to 10 | > 100 |  | 10 to 100 | 1 to 10 | 0.2 to 2 | ≥ 10 | > 100 | > 10 |  |  |  |  |  |  | > 10
COc1cccc2[nH]c(C(=O)N3C[C@@H]4CCC[C@@H]4[C@H]3C(=O)N[C@@H](C[C@@H]3CCNC3=O)C(=O)C(=O)N[C@H]3CCOC3)cc12 [Compound 103] |  | > 100 | 0.2 to 2 | 10 to 100 | 10 to 100 | 0.02 to 0.2 | ≥ 10 | > 100 | > 10 |  |  |  | > 10 |  |  | 
COc1cccc2[nH]c(C(=O)N3C[C@@H]4CCC[C@@H]4[C@H]3C(=O)N[C@@H](C[C@@H]3CCNC3=O)C(=O)C(=O)NC3CCOCC3)cc12 [Compound 104] |  | > 100 | 0.2 to 2 | 10 to 100 | 10 to 100 | 0.2 to 2 | ≥ 10 | > 100 | > 10 |  |  |  | > 10 |  |  | 
COc1cccc2[nH]c(C(=O)N3C[C@@H]4CCC[C@@H]4[C@H]3C(=O)N[C@@H](C[C@@H]3CCNC3=O)C(=O)C(=O)N[C@@H]3CCOC3)cc12 [Compound 105] |  | > 100 | 0.2 to 2 | 10 to 100 | 10 to 100 | 0.02 to 0.2 | ≥ 10 | > 100 | > 10 |  |  |  | > 10 |  |  | 
COc1cccc2[nH]c(C(=O)N3CCc4ccccc4[C@H]3C(=O)N[C@@H](C[C@@H]3CCNC3=O)C(=O)CO)cc12 [Compound 106] | 1 to 10 | > 50 | 2 to 20 | 10 to 100 | 10 to 100 | 0.2 to 2 | ≥ 10 | > 10 | > 10 |  |  |  |  |  |  | 
